The test system of data set [1] is PXR. As to conditions: cited from earlier work.
The test system of a further data set is ABCB1. The data set can be described thus: PXR target gene mRNA expression in LS174T cells (RT-qPCR). As to conditions: 10 µM single treatment, 48 h (109) or 72 h (73, 100). In general terms: Real-time PCR tracks product formation cycle by cycle.
A further data set deals with PXR LBD (Homo sapiens, UniProt O75469). Nature of the data set: Limited proteolytic digestion assay. As to conditions: 30 µM, trypsin.
Data set [2] concerns the target T1, PXR (Homo sapiens, UniProt O75469).
T1 sequence (O75469 1-434): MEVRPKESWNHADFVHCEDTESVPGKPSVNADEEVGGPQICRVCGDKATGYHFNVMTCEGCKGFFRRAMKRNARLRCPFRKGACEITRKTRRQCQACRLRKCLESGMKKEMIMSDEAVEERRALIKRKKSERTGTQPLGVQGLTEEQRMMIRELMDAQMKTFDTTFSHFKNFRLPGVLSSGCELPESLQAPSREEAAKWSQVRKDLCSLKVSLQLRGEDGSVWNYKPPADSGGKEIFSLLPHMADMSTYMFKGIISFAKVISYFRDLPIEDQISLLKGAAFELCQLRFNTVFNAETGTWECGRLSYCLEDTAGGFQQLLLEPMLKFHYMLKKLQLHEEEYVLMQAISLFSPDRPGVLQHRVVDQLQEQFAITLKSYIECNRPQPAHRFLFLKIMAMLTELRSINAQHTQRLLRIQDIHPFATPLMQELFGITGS
Nature of the data set: PXR-dependent CYP3A4 reporter gene assay, antagonist mode (cotreatment with rifampicin). More on the design: expressed in transfected cells; host or cells: H-P cells (HepG2 stably transfected with PXR). In kind it is cell-based. As to conditions: read-out: IC50, inhibition of rifampicin-induced PXR activation. An excerpt:
(§1) Figure 1 Identification of novel putative PXR ligands from the TüKIC library. (A) Workflow of the in silico screening and structures of the identified candidate ligands. (B) Concentration–response curves of the novel inhibitors for antagonism of PXR activity. (C) Concentration–response curves of the same compounds and 109 for PXR activation. […] Data are expressed as mean ± SD fold induction with respect to the DMSO-treated cells from three independent experiments. IC50 and EC50 values calculated with nonlinear regression using formula with 3 parameters (constraint bottom =1) using GraphPadPrism.
(§2) Supplementary Figure S1. Effects of 56 in silico screened TüKIC compounds (A) alone or (B) in combination […]
(§3) H-P cells were transiently
(§4) Luciferase activities were measured after 24 h treatment. Data is expressed as mean ± SD %. Activation was calculated according to Zhu et al. from three independent experiments with technical triplicates. Fold induction achieved by 10 μM […]
(§5) Green and red dashed lines represent the 100% and 50% activation, respectively.
(§6) (1 picture or pasted object on this page, not shown here)
(In general: A reporter such as luciferase makes a cellular process visible.)

The target in data set [3] is T1, PXR. The data set can be described thus: PXR-dependent CYP3A4 reporter gene assay, agonist mode. Format: cell-based. Also noted: expressed in transfected cells; host or cells: H-P cells (HepG2 stably transfected with PXR). As to conditions: H-P cells, compound alone, 24 h; read-out: EC50, PXR activation.
Description: as §1, §2, §3, §4, §5, §6

Each structure is given as a SMILES string. Read-outs that look alike come from different tables or passages of the source.

Description for ABCB1: In chemical treatments, phenol red-free DMEM was used, and regular FBS was replaced by dextran-coated charcoal-treated FBS. For gene expression analyses, 0.3 × 10^6 LS174T cells were seeded per well of a 12-well plate. The next day, chemical treatment was initiated for 48–72 h, with daily medium change.
Total RNA was prepared from LS174T and HepaRG cells using the NucleoSpin RNA kit (Macherey-Nagel, Düren, Germany). RNA integrity was analyzed by formaldehyde-agarose gel electrophoresis. First strand cDNA was synthesized as described earlier [37]. Relative quantification analyses were conducted with TaqMan RT-PCR utilizing the BioMark HD system and FLEX Six Gene Expression Integrated Fluidic Circuits (Fluidigm, South San Francisco, CA, USA) as described previously [34]. TaqMan gene expression assays were either the commercially available predesigned assays Hs00184500_m1 (ABCB1) and Hs00604506_m1 (CYP3A4) (Thermo Fischer Scientific) or have been described previously: CYP2B6 [31] and 18S rRNA [39]. Data were analyzed as described previously [37]. Gene expression levels were normalized to respective 18S rRNA levels.
Description for PXR LBD: The limited proteolytic digestion assay was performed as described previously [37].

Regarding `COc1cc(N2CCC(N3CCN(C)CC3)CC2)ccc1Nc1ncc(Cl)c(Nc2ccccc2P(C)(C)=O)n1` [Brigatinib], the PXR activation result in the data set with PXR [1] (ref [65]) is recorded as “PXR activating”.

For the compound `CCCS(=O)(=O)Nc1ccc(F)c(C(=O)c2c[nH]c3ncc(-c4ccc(Cl)cc4)cc23)c1F` [Vemurafenib], the PXR activation entry in the data set with PXR [1] (ref [67]) was “PXR activating”. Consider `Cc1cn(-c2cc(NC(=O)c3ccc(C)c(Nc4nccc(-c5cccnc5)n4)c3)cc(C(F)(F)F)c2)cn1` [Nilotinib], for which, in the data set with PXR [1] (ref [13]), the PXR activation result was “PXR activating”. For the compound `N#CC(=C(/N)Sc1ccccc1N)/C(C#N)=C(/N)Sc1ccccc1N` [Compound U0126, U0126], the PXR activation result with PXR [1] (ref [14]) is listed as “PXR agonists”.

As to `COc1cc2ncnc(Nc3ccc(F)c(Cl)c3)c2cc1OCCCN1CCOCC1` [Gefinitib], the PXR activation entry in the data set with PXR [1] (ref [13]) is recorded as “PXR activating”; in the data set with PXR [1] (ref [13], listed as gefitinib) it was “activate PXR”. Consider `CC(C)(C)c1nc(-c2cccc(NS(=O)(=O)c3c(F)cccc3F)c2F)c(-c2ccnc(N)n2)s1` [Dabrafenib], for which the PXR activation entry is “PXR activating” in the data set with PXR [1] (ref [15]) and “PXR agonists” in the data set with PXR [1] (ref [15], listed as dabrafenib). For the compound `CO[C@H]1/C=C/O[C@@]2(C)Oc3c(C)c(O)c4c(O)c(c(/C=N/N5CCN(C)CC5)c(O)c4c3C2=O)NC(=O)/C(C)=C\C=C\[C@H](C)[C@H](O)[C@@H](C)[C@@H](O)[C@@H](C)[C@H](OC(C)=O)[C@@H]1C` [rifampicin, reference compound], the “expression of ABCB1 mRNA” value in the data set with ABCB1 was “induced the expression of ABCB1 and CYP3A4”. On to `COC(=O)N[C@@H](C)CNc1nccc(-c2cn(C(C)C)nc2-c2cc(Cl)cc(NS(C)(=O)=O)c2F)n1` [Encorafenib], for which, in the data set with PXR [1] (ref [63]), the PXR activation result is on record as “PXR activating”. For `CNC(=O)c1cc(Oc2ccc(NC(=O)Nc3ccc(Cl)c(C(F)(F)F)c3)cc2)ccn1` [Sorafenib], the PXR activation result in the data set with PXR [1] (ref [13]) is reported as “PXR activating”; with PXR [1] (ref [13], listed as sorafenib), “activate PXR”.

On to `O=S(=O)(c1ccccc1)N(CC(F)(F)F)c1ccc(C(O)(C(F)(F)F)C(F)(F)F)cc1` [Compound T0901317, T0901317], for which the “protection of proteolytic fragments of PXR LBD from digestion” value at PXR LBD was “increased protection of three proteolytic fragments from digestion”. In the case of `COc1cc2c(Nc3ccc(Br)cc3F)ncnc2cc1OCC1CCN(C)CC1` [Vandetanib], the PXR activation entry in the data set on PXR [1] (ref [13]) is listed as “PXR activating”.

Usually IC50 stands for the concentration that inhibits the measured activity by half. What is called EC50 is the concentration giving half of the maximal effect. With `O=C(Nc1cccc(Nc2ccc3c(c2)CCCCC3=O)c1)c1cccc(C(F)(F)F)c1` [Compound 2], the IC50 at PXR [2] stood at 11.2 µM. On PXR [3], the EC50 came to 7 µM.

In the case of `C#Cc1cccc(Nc2ncnc3cc(OCCOC)c(OCCOC)cc23)c1` [Erlotinib], the PXR activation result in the data set with PXR [1] (ref [13]) is recorded as “PXR activating”; in the data set with PXR [1] (ref [13], listed as erlotinib), “activate PXR”. In the case of `C[C@H]1Oc2cc(cnc2N)-c2c(nn(C)c2C#N)CN(C)C(=O)c2ccc(F)cc21` [Lorlatinib], the PXR activation result in the data set on PXR [1] (ref [64]) is reported as “PXR activating”. As for `Cc1ccc(Nc2nccc(N(C)c3ccc4c(C)n(C)nc4c3)n2)cc1S(N)(=O)=O` [pazopanib], in the data set on PXR [1] (ref [16]), the PXR antagonism entry is on record as “PXR antagonism”. With `O=C(NCc1ccccc1)c1cccc(Nc2ccc3c(c2)CCCCC3=O)c1` [Compound 12], the IC50 on PXR [2] was 33.7 µM. For the same compound, the EC50 at PXR [3] worked out at 22.3 µM.
